Laboratory results taken from ChEMBL document CHEMBL1165917, “Synthesis and NMDA receptor affinity of fluorinated dioxadrol analogues” (Bioorg Med Chem, 2010).

Key:
Rattus norvegicus = species: Rattus norvegicus; settings: at 1 µM
[1] = Displacement of [3H]-(+)-MK801 from PCP binding site of NMDA receptor from pig brain cortex after 150 mins by scintillation counting; parameters: species or system Sus scrofa
[2] = Displacement of [3H]ditolylguanidine from sigma2 opioid receptor from rat brain cortex after 150 mins by scintillation counting
[3] = target: Sigma non-opioid intracellular receptor 1 (Cavia porcellus) (UniProt Q60492); settings: at 1 µM
Description: Displacement of [3H](+)-pentazocine from sigma1 opioid receptor from guinea pig brain cortex at 1 uM after 150 mins by scintillation counting

[4] = target: Sigma non-opioid intracellular receptor 1 (Cavia porcellus, UniProt Q60492); assay: Displacement of [3H](+)-pentazocine from sigma1 opioid receptor from guinea pig brain cortex after 150 mins by scintillation counting
Sus scrofa = species: Sus scrofa; settings: at 1 µM
Description: Displacement of [3H]-(+)-MK801 from PCP binding site of NMDA receptor from pig brain cortex at 1 uM after 150 mins by scintillation counting

Sequence of Sigma non-opioid intracellular receptor 1 (Cavia porcellus) (Q60492 whole entry): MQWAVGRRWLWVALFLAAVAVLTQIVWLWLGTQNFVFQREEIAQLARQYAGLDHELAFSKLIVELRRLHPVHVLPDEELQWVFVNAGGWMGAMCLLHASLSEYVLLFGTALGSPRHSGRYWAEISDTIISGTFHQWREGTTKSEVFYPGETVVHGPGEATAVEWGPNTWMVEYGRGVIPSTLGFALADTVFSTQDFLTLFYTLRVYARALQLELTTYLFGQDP
Sequence of Sigma non-opioid intracellular receptor 1 (Q60492 whole entry): as above

Compound | inhibition (Rattus norvegicus) [%] | Ki [1] [nM] | Ki [2] [nM] | inhibition [3] [%] | Ki [4] [nM] | inhibition (Sus scrofa) [%]
FC1(F)CCNC(C2COC(c3ccccc3)(c3ccccc3)O2)C1 (racemic) | 17 | 81 | 137 | 0 | 810 | 58
OC1CCNC(C2COC(c3ccccc3)(c3ccccc3)O2)C1 (racemic) | 13 | 44 |  |  | 971 | 
O=C1CCNC(C2COC(c3ccccc3)(c3ccccc3)O2)C1 (racemic) |  | 470 |  | 0 |  | 
FC1CCNC(C2COC(c3ccccc3)(c3ccccc3)O2)C1 (racemic; form 1) | 19 |  |  | 5 |  | 0
FC1CCNC(C2COC(c3ccccc3)(c3ccccc3)O2)C1 (racemic; form 2) [listing 1 of 2 here] |  | 27 |  |  |  | 
FC1CCNC(C2COC(c3ccccc3)(c3ccccc3)O2)C1 (racemic; form 2) [listing 2 of 2 here] | 19 |  |  | 5 |  | 
CC12CC3CC(C)(C1)CC(N)(C3)C2 [MEMANTINE] |  | 1200 |  |  |  | 
